According to article PMC11811631 (RSC Chemical Biology, 2025):

Target: ScoE (Streptomyces coeruleorubidus, UniProt A0A3B6UEU3)
Test: LC-MS of pyrazole product […] after tetrazine derivatization
Type: biochemical

| SMILES | LC-MS of pyrazole product 8 after tetrazine derivatization (preferred chain length) | LC-MS of pyrazole product 8 after tetrazine derivatization (accepted chain length) |
| --- | --- | --- |
| CC(CC(=O)O)NCC(=O)O (centres unmarked) [6 (n = 1), methyl-6] | substrates that have a short alkyl chain, e.g., a methyl and propyl group | – |
| CCCC(CC(=O)O)NCC(=O)O (centres unmarked) [6 (n = 3), 6 with a propyl group] | – | substrates that have a short alkyl chain, e.g., a methyl and propyl group |
